Where “and” joins values, the source holds several entries; their conditions need not be identical. Identical values can stand only once.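 Test compounds were applied to cells in 96-well plates for 48 hours at 5 doses. The concentration for 50% growth inhibition is given as GI50. TGI denotes the concentration required for complete inhibition of growth.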
Columns and labels:
Assay in all cases: growth of human tumour cells (NCI), 48 h
HS 578T breast = system: HS 578T breast
PC-3 prostate = system: PC-3 prostate
SW-620 colon = system: SW-620 colon
SK-MEL-28 melanoma = system: SK-MEL-28 melanoma
SNB-75 CNS = system: SNB-75 CNS
K-562 leukemia = system: K-562 leukemia
M14 melanoma = system: M14 melanoma
COLO 205 colon = system: COLO 205 colon
ACHN renal = system: ACHN renal
RPMI-8226 leukemia = system: RPMI-8226 leukemia

SMILES	GI50 (HS 578T breast) [µM]	TGI (HS 578T breast)	GI50 (PC-3 prostate)	TGI (PC-3 prostate)	GI50 (SW-620 colon)	TGI (SW-620 colon)	GI50 (SK-MEL-28 melanoma)	TGI (SK-MEL-28 melanoma)	GI50 (SNB-75 CNS)	TGI (SNB-75 CNS)	GI50 (K-562 leukemia)	TGI (K-562 leukemia)	GI50 (M14 melanoma)	TGI (M14 melanoma)	GI50 (COLO 205 colon) [µM]	TGI (COLO 205 colon)	GI50 (ACHN renal)	TGI (ACHN renal)	GI50 (RPMI-8226 leukemia) [µM]	TGI (RPMI-8226 leukemia) [µM]
CC1CN(S(=O)(=O)c2oc(-c3ccc(Cl)cc3)nc2C#N)CC(C)O1 (centres undefined)	3.92	27.2 µM	1.97 µM	4.04 µM	1.36 µM	3.09 µM	1.81 µM	3.38 µM	10.6 µM	22.7 µM	2.07 µM	> 100 µM	1.62 µM	3.39 µM	2.04	4.35 µM	1.74 µM	3.13 µM	–	–
CN1CCN(CCOc2ccc(-c3cnc4c(-c5cccc(F)c5)cnn4c3)cc2)CC1	1.74	4.79 µM	1.92 µM	4.39 µM	1.81 µM	3.4 µM	2.07 µM	4.54 µM	1.39 µM	3.53 µM	0.915 µM	3.48 µM	1.95 µM	4.34 µM	–	–	1.66 µM	3.02 µM	1.85	5.25
CC1=C2C(=CC(C)(C)[C@@H]2O)C(=O)[C@](C)(O)C12CC2	0.0276	0.0855 µM and 0.0395 µM	–	0.164 µM and 0.0194 µM	0.00597 µM and 0.0168 µM	0.0976 µM and 0.131 µM	–	0.0756 µM and 0.0891 µM	0.0315 µM and < 0.0142 µM	0.0723 µM and 0.0272 µM	0.0145 µM	0.369 µM and 0.596 µM	–	0.0537 µM and 0.0431 µM	0.0209	0.0989 µM and 0.0977 µM	0.00796 µM	0.0625 µM and 0.114 µM	–	–
Cc1nc2ccc(Br)cc2c(=O)n1-c1ccc(NC2OCC(O)C(O)C2O)cc1 (centres undefined)	–	> 100 µM	18.5 µM and > 100 µM	86.9 µM and > 100 µM	17.8 µM and > 100 µM	47 µM and > 100 µM	26.2 µM and > 100 µM	66.9 µM and > 100 µM	38.7 µM and 92.3 µM	> 100 µM	17.3 µM and > 100 µM	> 100 µM	17.9 µM and > 100 µM	35.6 µM and > 100 µM	> 100	> 100 µM	35.6 µM and > 100 µM	> 100 µM	–	–
NCCCCC1NC(=O)C(CC(=O)O)NC(=O)CNC(=O)C(CCCN=C(N)N)NC(=O)C(N)CSSCC(C(=O)O)NC(=O)C(CC(=O)O)NC(=O)C2CCCN2C(=O)CNC1=O (centres undefined)	> 100	> 100 µM	–	–	> 100 µM	> 100 µM	> 100 µM	> 100 µM	> 100 µM	> 100 µM	–	–	> 100 µM	> 100 µM	> 100	> 100 µM	> 100 µM	> 100 µM	–	–
O=C1C2=C(C(=O)c3cnccc31)C1C=CC2CC1 (centres undefined)	2.77	6.6 µM	2.15 µM	–	1.85 µM	3.44 µM	2.02 µM	3.69 µM	1.34 µM	2.73 µM	1.64 µM	–	1.94 µM	3.41 µM	2.32	4.62 µM	–	–	2.28	5.59
CCOc1ccc(/C(C=O)=C(\Cl)c2ccc(OC)cc2)cc1	–	> 100 µM	–	–	–	> 100 µM	–	> 100 µM	–	> 100 µM	–	> 100 µM	–	> 100 µM	–	> 100 µM	–	> 100 µM	–	> 100
COc1ccc(C(=O)c2cc3c(N)c(C(=O)Nc4ccccc4)sc3nc2C)cc1	0.331	67.5 µM	2.77 µM	> 100 µM	0.415 µM	> 100 µM	–	–	0.242 µM	5.92 µM	0.526 µM	> 100 µM	0.779 µM	> 100 µM	1.42	> 100 µM	1.56 µM	> 100 µM	1.78	> 100
COc1ccc(Nc2nc3ccccc3c3occc23)cc1	7.12	16.3 µM	12.9 µM	> 50 µM	4.06 µM	11 µM	7.19 µM	18.8 µM	–	–	6.74 µM	> 50 µM	9.72 µM	18.9 µM	7.71	18.6 µM	5.35 µM	13.7 µM	8.35	22.6
COc1ccc(NC(=O)/C=C(C)/C=C/C=C(C)/C=C/C2=C(C)CCCC2(C)C)cc1	9.42	39.8 µM	3.18 µM	11.8 µM	2.98 µM	8.43 µM	4.13 µM	14.1 µM	4.5 µM	18.5 µM	2.41 µM	7.23 µM	–	–	3.52	10.9 µM	3.21 µM	12.4 µM	2.33	7.76
CN(Cc1ccc(C(F)(F)F)cc1)CC(O)C(=O)Nc1ccc(Cl)cc1 (centres undefined)	–	–	1.77 µM	3.21 µM	1.54 µM	3.1 µM	1.62 µM	3.16 µM	1.31 µM	2.62 µM	1.18 µM	2.78 µM	1.52 µM	3.05 µM	1.86	3.46 µM	1.55 µM	2.92 µM	1.02	2.8
Cn1cccc1-c1cc(-c2ccccc2)[nH]c(=O)c1C#N	> 100	> 100 µM	> 100 µM	> 100 µM	> 100 µM	> 100 µM	> 100 µM	> 100 µM	45.1 µM	> 100 µM	> 100 µM	> 100 µM	–	–	> 100	> 100 µM	> 100 µM	> 100 µM	> 100	> 100
COc1ccc2c(c1OC)-c1c(c3ccc([N+](=O)[O-])cc3c(=O)n1CCCBr)C2=O	70.6	> 100 µM	18.1 µM	> 100 µM	5.59 µM	> 100 µM	–	–	26.8 µM	60.6 µM	99.7 µM	> 100 µM	27.2 µM	> 100 µM	> 100	> 100 µM	–	–	25	> 100
CSc1ncc(Br)c(Sc2nc(N)nc3nc[nH]c23)n1	6.71	> 100 µM	–	–	4.46 µM	24 µM	6.63 µM	53 µM	2.82 µM	81.4 µM	2.01 µM	10.1 µM	2.78 µM	> 100 µM	3.09	9.17 µM	4.5 µM	43.6 µM	–	–
